Assay results reported in patent publication US6413959B1, “Method of treating depression with arylglycinamide derivatives” (Boehringer Ingelheim KG, priority 1995, dated 2002).

How the values were obtained:
[1] = target: T1, NK1-receptor (substance P-receptor) (Homo sapiens, UniProt P25103); experiment: NK1-receptor affinity, displacement of 125I-labelled substance P on IM-9 cells; type: binding; conditions: human lymphoblastoma cells (IM-9) with cloned NK1-receptors
T1 construct: expressed in transfected cells; host or cells: IM-9 human lymphoblastoma cells
T1 sequence (P25103 whole entry): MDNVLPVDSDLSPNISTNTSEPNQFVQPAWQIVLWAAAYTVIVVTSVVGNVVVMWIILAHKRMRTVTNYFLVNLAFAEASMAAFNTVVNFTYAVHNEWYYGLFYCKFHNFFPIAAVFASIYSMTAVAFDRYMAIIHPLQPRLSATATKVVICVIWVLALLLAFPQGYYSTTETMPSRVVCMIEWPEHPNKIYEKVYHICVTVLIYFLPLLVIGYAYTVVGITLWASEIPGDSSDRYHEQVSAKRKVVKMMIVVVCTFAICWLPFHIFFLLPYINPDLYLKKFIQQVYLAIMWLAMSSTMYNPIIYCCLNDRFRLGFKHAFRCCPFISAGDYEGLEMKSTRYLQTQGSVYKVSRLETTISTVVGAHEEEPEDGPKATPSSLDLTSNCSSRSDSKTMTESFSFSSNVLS

NK1 = target: T2, NK1 (Cavia porcellus, UniProt P30547); experiment: Inhibition of the lowering of blood pressure caused by NK1 in anaesthetised guinea pigs; type: in vivo; conditions: guinea pig, iv, antagonist given by intraduodenal route, NK1-agonist [βAla4, Sar9, Met(O2)11] SP(4-11) 0.2 μmol/kg i.v., read-out: ID50 (dose which inhibits the lowering of blood pressure caused by the NK1-agonist by 50%)
T2 construct: Guinea pigs weighing 300-500 grams were anaesthetised with pentobarbital; from tissue; host or cells: whole anaesthetised guinea pig (in vivo)
T2 sequence (P30547 whole entry): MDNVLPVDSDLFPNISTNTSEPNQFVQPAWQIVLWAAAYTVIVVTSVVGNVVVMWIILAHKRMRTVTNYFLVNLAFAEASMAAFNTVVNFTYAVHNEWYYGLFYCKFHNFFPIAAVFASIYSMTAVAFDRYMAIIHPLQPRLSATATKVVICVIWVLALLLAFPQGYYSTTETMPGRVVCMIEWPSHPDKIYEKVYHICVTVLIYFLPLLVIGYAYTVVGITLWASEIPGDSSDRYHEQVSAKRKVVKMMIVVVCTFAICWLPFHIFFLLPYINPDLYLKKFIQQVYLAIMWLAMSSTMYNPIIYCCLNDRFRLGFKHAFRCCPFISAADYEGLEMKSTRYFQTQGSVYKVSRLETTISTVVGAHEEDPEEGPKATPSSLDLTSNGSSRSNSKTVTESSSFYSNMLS

SMILES	Ki [1] [nM]	melting point	ED50 (NK1) [mg/kg]
CN(CCc1cc(C(F)(F)F)cc(C(F)(F)F)c1)C(=O)C(c1ccccc1)N1CCC(C#N)(c2ccccc2)CC1.Cl (stereo not drawn) [Example 75]	180	91 to 98 °C	
CN(CCc1cc(C(F)(F)F)cc(C(F)(F)F)c1)C(=O)C(c1ccc2c(c1)OCO2)N1CCN(C2CCCCC2)CC1 (stereo not drawn) [Example 71]	2.1	87 to 97 °C	
CN(Cc1cc(C(F)(F)F)cc(C(F)(F)F)c1)C(=O)C(c1ccccc1)N1CCN(C2CCCCC2)CC1 (stereo not drawn) [Example 4]	1	> 240 °C (dec.)	
COc1ccc(C(C(=O)N(C)CCc2cc(C(F)(F)F)cc(C(F)(F)F)c2)N2CCN(C3CCCCC3)CC2)cc1OC (stereo not drawn) [Example 70]	2.8	123 to 133 °C (dec.)	
CN(CCc1cc(C(F)(F)F)cc(C(F)(F)F)c1)C(=O)C(c1ccccc1)N1CCC(N2CCOCC2)CC1 (stereo not drawn) [Example 46]	1.4		
CN(CCc1cc(C(F)(F)F)cc(C(F)(F)F)c1)C(=O)C(c1ccc(Cl)c(Cl)c1)N1CCN(C2CCCCC2)CC1 (stereo not drawn) [Example 58]	6.4	212 to 216 °C (dec.)	
O=C(NCCc1cc(C(F)(F)F)cc(C(F)(F)F)c1)C(c1ccccc1)N1CCN(C2CCCCC2)CC1 (stereo not drawn) [Example 3]	1.4	235 to 238 °C	
CN(CCc1cc(C(F)(F)F)cc(C(F)(F)F)c1)C(=O)C(c1ccccc1)N1CCC(N2CCCC2)CC1 (stereo not drawn) [Example 45]	1.6		

Further compounds by falling Ki [1], results first:

Ki [1] [nM]	melting point	SMILES	ED50 (NK1) [mg/kg]
9.2	148 to 156 °C	CN(CCc1cc(C(F)(F)F)cc(C(F)(F)F)c1)C(=O)C(c1ccccc1)N1CCN(CCc2ccccc2)CC1 (stereo not drawn) [Example 65]	
7		O=C(C(c1ccccc1)N1CCC(N2CCCCC2)CC1)N(CCc1cc(C(F)(F)F)cc(C(F)(F)F)c1)Cc1ccccc1 (stereo not drawn) [Example 76]	
4.2	244 to 246 °C (dec.)	CN(CCc1cc(C(F)(F)F)cc(C(F)(F)F)c1)C(=O)C(c1ccc(Cl)c(Cl)c1)N1CCC(N2CCCCC2)CC1 (stereo not drawn) [Example 59]	
2.3	110 to 120 °C	CN(CCc1cc(C(F)(F)F)cc(C(F)(F)F)c1)C(=O)C(c1ccccc1)N1CCN(C2CCCCCC2)CC1 (stereo not drawn) [Example 53]	
1.5	236 to 238 °C (dec.)	CN(CCc1cc(C(F)(F)F)cc(C(F)(F)F)c1)C(=O)C(c1ccccc1)N1CCN(C2CCC2)CC1 (stereo not drawn) [Example 68]	
1.4	113 to 117 °C (dec.)	CN(CCc1cc(C(F)(F)F)cc(C(F)(F)F)c1)C(=O)C(c1ccccc1)N1CCN(CC2CC2)CC1 (stereo not drawn) [Example 66]	
1.3	158 to 164 °C	CN(CCc1cc(C(F)(F)F)cc(C(F)(F)F)c1)C(=O)C(c1ccccc1)N1CCN(C2CCCCC2)CC1 (stereo not drawn) [Example 5]	1.4
1.1	133 to 143 °C	CN(CCc1cc(C(F)(F)F)cc(C(F)(F)F)c1)C(=O)C(c1ccccc1)N1CCC(N2CCCC2)CC1 (stereo not drawn) [Example 52]	
